Literature values in US20260327216A1, “SUBSTITUTED OXAZOLONE COMPOUND FOR DECREASING LEVELS OF IKZF I-4 PROTEINS” (BRISTOL-MYERS SQUIBB COMPANY, priority 2023, published 2026).

What was measured:
solid tumors = settings: patients with solid tumors / advanced malignancies; cited from earlier work
T and NK cell functions = settings: preclinical and clinical studies; cited from earlier work
[1] = tested on: highly immunogenic syngeneic tumors; settings: engineered mouse models; Geng et al., 2022; cited from earlier work

Row | Compound | clinical response in patients with solid tumors (solid tumors) | effect on T and NK cell functions (T and NK cell functions) | antitumor immune responses against highly immunogenic syngeneic tumors [1]
1 | Cc1nc2cccc(N)c2c(=O)n1C1CCC(=O)NC1=O (centres unmarked) [avadomide] | modest responses of stable disease | – | –
2 | Nc1cccc2c1C(=O)N(C1CCC(=O)NC1=O)C2=O (centres unmarked) [pomalidomide] | modest responses of stable disease | – | –
3 | Nc1cccc2c1CN(C1CCC(=O)NC1=O)C2=O (centres unmarked) [lenalidomide] | modest responses of stable disease | augment T and NK cell functions | modestly increase antitumor immune responses
